Usually Ki stands for a dissociation constant, usually derived from enzyme kinetics or from competition with a known ligand.

In test [1] the target is human 5-HT2A serotonin receptor (Homo sapiens (Human), UniProt P28223). Description: Radioligand binding ([3H]-ketanserin) to cloned human 5-HT2A receptor expressed in HEK-293 EBNA cells. As to conditions: membranes of transfected HEK-293 EBNA cells, 1.1 nM [3H]-ketanserin, 1 h at RT. As to the method: The ability of the compounds to bind to the 5-HT2A, D3 and D2 receptors was determined using radioligand binding to cloned receptors selectively expressed in HEK-293 EBNA cells.
(§1) HEK-293 EBNA cells were transiently transfected with expression plasmids encoding for the human D2 or D3 dopamine- or for the human 5-HT2A serotonin receptor, respectively. The cells were harvested 48 h post-transfection, washed three times with cold PBS and stored at −80° C. prior to use. The pellet was suspended in cold 50 mM Tris-HCl buffer containing 10 mM EDTA (pH 7.4) and homogenized with a Polytron (Kinematica AG, Basel, Switzerland) for 20-30 sec at 12,000 rpm. After centrifugation at 48,000×g for 30 min at 4° C., the pellet was resuspended in cold 10 mM Tris-HCl buffer containing 0.1 mM EDTA (pH 7.4), homogenized, and centrifuged as above. This pellet was further resuspended in a smaller volume of ice cold 10 mM Tris-HCl buffer containing 0.1 mM EDTA (pH 7.4) and homogenized with a Polytron for 20-30 sec at 12,000 rpm. The protein content of this homogenate was determined with the Bio-Rad (Bradford) Protein Assay (Biorad Laboratories GmbH, München, Germany) according to the instructions of the manufacturer using gamma globulin as the standard. This homogenate was stored at −80° C. in aliquots and thawed immediately prior to use.
Aliquots of membrane preparations were thawed at RT, resuspended in assay buffer (D2, D3: 50 mM Tris-HCl, 120 mM NaCl, 5 mM MgCl2, 1 mM EDTA, 5 mM KCl, 1.5 mM CaCl2, pH=7.4; 5-HT2A: 50 mM Tris-HCl, 10 mM MgCl2, 1 mM EGTA, pH=7.4), homogenized with a Polytron for 20-30 sec at 12,000 rpm and adjusted to a final concentration of approximately 7.5 μg protein/well (D2, D3) and 15 μg protein/well (5-HT2A), respectively.
(§2) The binding affinity (Ki) of the compounds was determined using radioligand binding. Membranes were incubated in a total volume of 200 μl with a fixed concentration of radioligand (final concentration approximately 0.7 nM [^3H]-spiperone for D2, 0.5 nM [^3H]-spiperone for D3, and 1.1 nM [^3H]-ketanserin for 5-HT2A) and ten concentrations of test compound in ranging between 10 μM-0.1 nM for 1 h at RT. At the end of the incubation, the reaction mixtures were filtered on to unifilter 96-well white microplates with bonded GF/C filters (Packard BioScience, Zürich, Switzerland; preincubated for 1 h in 0.1% polyethylenimine (PEI) in assay buffer) with a Filtermate 196 harvester (Packard BioScience) and washed 3 times with cold assay buffer. The nonspecific binding was determined with equally composed reaction mixtures in the presence of 10 μM unlabelled spiperone. Per well 45 μl of Microscint 40 (Perkin Elmer, Schwerzenbach, Switzerland) was added, plates for sealed, shaken for 20 min and counted for 3 min on a Topcount Microplate Scintillation Counter (Canberra Packard SA, Zürich, Switzerland) with quenching correction.
(§3) The CPM value for each duplicate of a concentration of competing compound was averaged (y1), then the % specific binding was calculated according to the equation (((y1−non-specific)/(total binding−non-specific))×100). Graphs were plotted with the % specific binding using XLfit, a curve fitting program that iteratively plots the data using Levenburg Marquardt algorithm. The single site competition analysis equation used was y=A+((B−A)/(1+((x/C)^D))), where y is the % specific binding, A is the minimum y, B is the maximum y, C is the IC50, x is the log10 of the concentration of the competing compound and D is the slope of the curve (the Hill Coefficient). From these curves the IC50 (inhibition concentration at which 50% specific binding of the radioligand was displaced) and Hill coefficient were determined. The affinity constant (Ki) was calculated using the Cheng-Prusoff equation Ki=(IC50/1+([L]/Kd), where [L] is the concentration of radioligand and Kd is the dissociation constant of the radioligand at the receptor as determined by the saturation isotherm.

Test [2] has as its target human D3 dopamine receptor (Homo sapiens (Human), UniProt P35462). Description: Radioligand binding ([3H]-spiperone) to cloned human D3 receptor expressed in HEK-293 EBNA cells. As to conditions: membranes of transfected HEK-293 EBNA cells, 0.5 nM [3H]-spiperone, 1 h at RT. On the procedure:
as §1, with “The pellet was suspended in cold 50 mM Tris-HCl buffer containing 10 mM EDTA (pH 7.4) and homogenized with a Polytron (Kinematica AG, Basel, Switzerland) for 20-30 sec at 12,000 rpm.” left out, “This pellet was further resuspended in a smaller volume of ice cold 10 mM Tris-HCl buffer containing 0.1 mM EDTA (pH 7.4) and homogenized with a Polytron for 20-30 sec at 12,000 rpm.” left out
as §2, §3

Chain of human D3 dopamine receptor (P35462 whole entry): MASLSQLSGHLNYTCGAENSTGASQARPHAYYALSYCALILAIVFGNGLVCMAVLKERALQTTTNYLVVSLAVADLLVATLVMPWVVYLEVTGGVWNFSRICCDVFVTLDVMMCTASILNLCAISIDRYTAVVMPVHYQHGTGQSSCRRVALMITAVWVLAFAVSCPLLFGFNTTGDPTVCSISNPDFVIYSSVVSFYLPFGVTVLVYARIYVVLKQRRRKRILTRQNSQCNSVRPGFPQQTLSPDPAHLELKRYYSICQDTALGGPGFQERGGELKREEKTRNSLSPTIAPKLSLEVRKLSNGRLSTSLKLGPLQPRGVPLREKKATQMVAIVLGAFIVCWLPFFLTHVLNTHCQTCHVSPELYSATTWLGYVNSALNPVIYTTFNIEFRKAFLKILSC

Turning to `O=C(N[C@H]1CC[C@H](CCN2CCC(c3noc4cc(F)ccc34)CC2)CC1)c1ccc(Cl)cc1` [Example 10, 4-Chloro-N-trans (4-{2-[4-(6-fluoro-benzo[d]isoxazol-3-yl)-piperidin-1-yl]-ethyl}-cyclohexyl)-benzamide], the figures for the Ki in test [1] and in test [2] were 2.67 nM and 3.5 nM, respectively.
Take `O=C(N[C@H]1CC[C@H](CCN2CCC(c3noc4cc(F)ccc34)CC2)CC1)c1ccc(N2CCS(=O)(=O)CC2)cc1` [Example 11, 4-(1,1-Dioxo-1,6-thiomorpholin-4-yl)-N-trans (4-{2-[4-(6-fluoro-benzo[d]isoxazol-3-yl)-piperidin-1-yl]-ethyl}-cyclohexyl)-benzamide]: the figures for the Ki in test [1] and in test [2] were 2.48 nM and 4.67 nM, respectively.
Consider `COc1cc(C(=O)N[C@H]2CC[C@H](CCN3CCC(c4noc5cc(F)ccc45)CC3)CC2)ccn1` [Example 13, N-trans (4-{2-[4-(6-Fluoro-benzo[d]isoxazol-3-yl)-piperidin-1-yl]-ethyl}-cyclohexyl)-2-methoxy-isonicotinamide], for which the inhibition constant Ki in test [1] is 1.62 nM; in test [2] it was 3.74 nM.
Taken in the same sequence, the figures for `O=C(N[C@H]1CC[C@H](CCN2CCC(c3noc4cc(F)ccc34)CC2)CC1)c1ccc(N2CCCCC2)cc1` [Example 14, N-trans (4-{2-[4-(6-Fluoro-benzo[d]isoxazol-3-yl)-piperidin-1-yl]-ethyl}-cyclohexyl)-4-piperidin-1-yl-benzamide] were 2.6 nM and 8.69 nM.
Taken in the same sequence, the figures for `O=C(N[C@H]1CC[C@H](CCN2CCC(c3noc4cc(F)ccc34)CC2)CC1)C1COc2ccccc2O1` (stereo partly drawn) [Example 15, 2,3-Dihydro-benzo[1,4]dioxine-2-carboxylic acid trans (4-{2-[4-(6-fluoro-benzo[d]isoxazol-3-yl)-piperidin-1-yl]-ethyl}-cyclohexyl)-amide] were 2.57 nM and 12.7 nM.
On the same counts, the results for `Cc1ccn(CC(=O)N[C@H]2CC[C@H](CCN3CCC(c4noc5cc(F)ccc45)CC3)CC2)n1` [Example 16, N-trans (4-{2-[4-(6-Fluoro-benzo[d]isoxazol-3-yl)-piperidin-1-yl]-ethyl}-cyclohexyl)-2-(3-methyl-pyrazol-1-yl)-acetamide] are 2.8 nM and 27.6 nM.
As for `O=C(N[C@H]1CC[C@H](CCN2CCC(c3noc4cc(F)ccc34)CC2)CC1)c1ccc(-n2cccc2)cc1` [Example 17, N-trans(4-{2-[4-(6-Fluoro-benzo[d]isoxazol-3-yl)-piperidin-1-yl]-ethyl}-cyclohexyl)-4-pyrrol-1-yl-benzamide], the Ki in test [1] was found to be 2.45 nM; in test [2], 2.61 nM.
Taken in the same sequence, the figures for `O=C(N[C@H]1CC[C@H](CCN2CCC(c3noc4cc(F)ccc34)CC2)CC1)C1(O)CC1` [Example 18, 1-Hydroxy-cyclopropanecarboxylic acid trans (4-{2-[4-(6-fluoro-benzo[d]isoxazol-3-yl)-piperidin-1-yl]-ethyl}-cyclohexyl)-amide] were 1.44 nM and 5.92 nM.
In the case of `O=C(N[C@H]1CC[C@H](CCN2CCC(c3noc4cc(F)ccc34)CC2)CC1)C1(C(F)(F)F)CCC1` [Example 19, 1-Trifluoromethyl-cyclobutanecarboxylic acid trans (4-{2-[4-(6-fluoro-benzo[d]isoxazol-3-yl)-piperidin-1-yl]-ethyl}-cyclohexyl)-amide], the inhibition constant Ki in test [1] amounted to 2.26 nM; in test [2] it was 7.74 nM.
As for `O=C(CC(F)(F)F)N[C@H]1CC[C@H](CCN2CCC(c3noc4cc(F)ccc34)CC2)CC1` [Example 20, 3,3,3-Trifluoro-N-trans (4-{2-[4-(6-fluoro-benzo[d]isoxazol-3-yl)-piperidin-1-yl]-ethyl}-cyclohexyl)-propionamide], the Ki in test [1] turned out to be 2.78 nM; in test [2], 5.19 nM.
Consider `COc1cc(CC(=O)N[C@H]2CC[C@H](CCN3CCC(c4noc5cc(F)ccc45)CC3)CC2)cc(OC)c1` [Example 21, 2-(3,5-Dimethoxy-phenyl)-N-trans (4-{2-[4-(6-fluoro-benzo[d]isoxazol-3-yl)-piperidin-1-yl]-ethyl}-cyclohexyl)-acetamide], for which the figures for the Ki in test [1] and in test [2] were 2.95 nM and 8.77 nM, respectively.
Turning to `CC1CN(c2ccc(C(=O)N[C@H]3CC[C@H](CCN4CCC(c5noc6cc(F)ccc56)CC4)CC3)cc2)CC(C)O1` (stereo partly drawn) [Example 22, 4-(2,6-Dimethyl-morpholin-4-yl)-N-trans (4-{2-[4-(6-fluoro-benzo[d]isoxazol-3-yl)-piperidin-1-yl]-ethyl}-cyclohexyl)-benzamide], the Ki turned out to be 21.2 nM in test [1] and 137 nM in test [2].
On the same counts, the results for `CC(=O)N[C@H]1CC[C@H](CCN2CCC(c3noc4ccc(F)cc34)CC2)CC1` [Example 24, N-trans(4-{2-[4-(5-Fluoro-benzo[d]isoxazol-3-yl)-piperidin-1-yl]-ethyl}-cyclohexyl)-acetamide] are 46.9 nM and 2.44 nM.
For `O=C(N[C@H]1CC[C@H](CCN2CCC(c3noc4ccc(F)cc34)CC2)CC1)c1ccc(N2CCOCC2)cc1` [Example 25, N-trans(4-{2-[4-(5-Fluoro-benzo[d]isoxazol-3-yl)-piperidin-1-yl]-ethyl}-cyclohexyl)-4-morpholin-4-yl-benzamide], the Ki in test [1] stood at 22.3 nM; in test [2], 9.04 nM.
As to `O=C(N[C@H]1CC[C@H](CCN2CCC(c3noc4ccc(F)cc34)CC2)CC1)c1ccc(N2CCCCC2)cc1` [Example 27, N-trans(4-{2-[4-(5-Fluoro-benzo[d]isoxazol-3-yl)-piperidin-1-yl]-ethyl}-cyclohexyl)-4-piperidin-1-yl-benzamide], the Ki stood at 7 nM in test [1] and 7.7 nM in test [2].
In the case of `CC1CN(c2ccc(C(=O)N[C@H]3CC[C@H](CCN4CCC(c5noc6ccc(F)cc56)CC4)CC3)cc2)CC(C)O1` (stereo partly drawn) [Example 28, 4-(2,6-Dimethyl-morpholin-4-yl)-N-trans (4-{2-[4-(5-fluoro-benzo[d]isoxazol-3-yl)-piperidin-1-yl]-ethyl}-cyclohexyl)-benzamide], the Ki came out at 99.1 nM in test [1] and 85.8 nM in test [2].
Regarding `O=C(N[C@H]1CC[C@H](CCN2CCC(c3noc4ccc(F)cc34)CC2)CC1)c1ccc(N2CCS(=O)(=O)CC2)cc1` [Example 29, 4-(1,1-Dioxo-1,6,4-thiomorpholin-4-yl)-N trans-(4-{2-[4-(5-fluoro-benzo[d]isoxazol-3-yl)-piperidin-1-yl]-ethyl}-cyclohexyl)-benzamide], the Ki in test [1] is 12.4 nM; in test [2] it was 5.94 nM.
As for `COCCC(=O)N[C@H]1CC[C@H](CCN2CCC(c3noc4cc(Cl)ccc34)CC2)CC1` [Example 32, N-trans(4-{2-[4-(6-Chloro-benzo[d]isoxazol-3-yl)-piperidin-1-yl]-ethyl}-cyclohexyl)-3-methoxy-propionamide], the Ki in test [1] was 16.5 nM; in test [2], 8.5 nM.
